# Test results as given in patent publication US20230081426A1, “COMPOUNDS AND METHODS FOR KRAS MODULATION AND INDICATIONS THEREFOR” (Plexxikon Inc., priority 2020, published 2023).
# Legend:
# [1] = target: T1, G12D-mutant human KRAS (amino acid residues 1-188) (Homo sapiens, UniProt P01116, G12D); experiment: KRAS Binding Disruption Assay (AlphaScreen; biotinylated KRpep-2d analogue or RAF1-RBD), G12D; conditions: KRAS G12D; geometric mean; read-out: KRAS GMean IC50 (uM) MUTATION: G12D
# T1 construct: G12D or G12C-mutant human KRAS (amino acid residues 1-188) with FLAG tag; made in house; host or cells: E. coli
# How it was run: (§1)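 Mutant KRAS (5-20 nM) incubated 1 h at 25° C with test compound and 5-20 nM biotinylated KRpep-2d analogue or RAF1-RBD in 20 mM HEPES pH 7.5, 100 mM NaCl, 5 mM MgCl2, 0.01% Tween-20, 0.01% BSA.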
# [2] = target: T2, G12C-mutant human KRAS (amino acid residues 1-188) (Homo sapiens, UniProt P01116, G12C); experiment: KRAS Binding Disruption Assay (AlphaScreen; biotinylated KRpep-2d analogue or RAF1-RBD), G12C; conditions: geometric mean, read-out: KRAS GMean IC50 (uM) MUTATION: G12C
# T2 construct: G12D or G12C-mutant human KRAS (amino acid residues 1-188) with FLAG tag; made in house; host or cells: E. coli
# How it was run: as §1
# [3] = target: T3, G12V-mutant human KRAS (amino acid residues 1-188) (Homo sapiens, UniProt P01116, G12V); experiment: KRAS Binding Competition Assay (AlphaScreen; biotinylated KRpep-2d analogue), G12V; conditions: geometric mean, read-out: KRAS GMean IC50 (uM) MUTATION: G12V
# T3 construct: G12V-mutant human KRAS (amino acid residues 1-188) with FLAG tag was purified from E. coli; made in house; host or cells: E. coli
smiles,measurement,setting,value
"Cc1cccc2cc(O)cc(-c3c(F)cc4c(N5C[C@H]6CC[C@@H](C5)N6)nc(OCC56CCCN5CCC6)nc4c3F)c12 [P-0088, 4-(4-((1R,5S)-3,8-diazabicyclo[3.2.1]octan-3-yl)-6,8-difluoro-2-((tetrahydro-1H-pyrrolizin-7a(5H)-yl)methoxy)quinazolin-7-yl)-5-methylnaphthalen-2-ol]",IC50,[1],0.0001 to 10 µM
same,IC50,[2],0.0001 to 10 µM
same,IC50,[3],0.0001 to 10 µM
"CN1CCC[C@H]1COc1nc(N2C[C@H]3CC[C@@H](C2)N3C(=O)Cc2cnccn2)c2ccc(-c3cc(O)cc4ccccc34)cc2n1 [P-0121, 1-((1R,5S)-3-(7-(3-hydroxynaphthalen-1-yl)-2-(((S)-1-methylpyrrolidin-2-yl)methoxy)quinazolin-4-yl)-3,8-diazabicyclo[3.2.1]octan-8-yl)-2-(pyrazin-2-yl)ethan-1-one]",IC50,[1],0.0001 to 10 µM
same,IC50,[2],10 to 100 µM
same,IC50,[3],10 to 100 µM
"NCC(O)CC(=O)N1[C@@H]2CC[C@H]1CN(c1nc(OCC34CCCN3CCC4)nc3cc(-c4cc(O)cc5ccccc45)ccc13)C2 (stereo partly drawn) [P-0100, 4-amino-3-hydroxy-1-((1R,5S)-3-(7-(3-hydroxynaphthalen-1-yl)-2-((tetrahydro-1H-pyrrolizin-7a(5H)-yl)methoxy)quinazolin-4-yl)-3,8-diazabicyclo[3.2.1]octan-8-yl)butan-1-one]",IC50,[1],0.0001 to 10 µM
same,IC50,[2],0.0001 to 10 µM
same,IC50,[3],0.0001 to 10 µM
"CN1CC[C@H](NC(=O)N2[C@@H]3CC[C@H]2CN(c2nc(OCC45CCCN4CCC5)nc4cc(-c5cc(O)cc6ccccc56)ccc24)C3)C1 [P-0132, (1R,5S)-3-(7-(3-hydroxynaphthalen-1-yl)-2-((tetrahydro-1H-pyrrolizin-7a(5H)-yl)methoxy)quinazolin-4-yl)-N-((S)-1-methylpyrrolidin-3-yl)-3,8-diazabicyclo[3.2.1]octane-8-carboxamide]",IC50,[1],0.0001 to 10 µM
same,IC50,[2],0.0001 to 10 µM
same,IC50,[3],0.0001 to 10 µM
"CN1CCC[C@H]1COc1nc(N2C[C@H]3CC[C@@H](C2)N3)c2ccc(-c3cc(O)cc4ccccc34)c(F)c2n1 [P-0044, 4-(4-((1R,5S)-3,8-diazabicyclo[3.2.1]octan-3-yl)-8-fluoro-2-(((S)-1-methylpyrrolidin-2-yl)methoxy)quinazolin-7-yl)naphthalen-2-ol]",IC50,[1],0.0001 to 10 µM
same,IC50,[2],0.0001 to 10 µM
same,IC50,[3],0.0001 to 10 µM
"O=C1NC(=O)/C(=C/C(=O)N2[C@@H]3CC[C@H]2CN(c2nc(OCC45CCCN4CCC5)nc4c(F)c(-c5cc(O)cc6ccccc56)ccc24)C3)S1 [P-0443, (Z)-5-(2-((1R,5S)-3-(8-fluoro-7-(3-hydroxynaphthalen-1-yl)-2-((tetrahydro-1H-pyrrolizin-7a(5H)-yl)methoxy)quinazolin-4-yl)-3,8-diazabicyclo[3.2.1]octan-8-yl)-2-oxoethylidene)thiazolidine-2,4-dione]",IC50,[1],0.0001 to 10 µM
same,IC50,[2],0.0001 to 10 µM
same,IC50,[3],0.0001 to 10 µM
"N#CCC(=O)N1[C@@H]2CC[C@H]1CN(c1nc(OC[C@@]34CCCN3C[C@H](F)C4)nc3c(F)c(-c4cc(O)cc5cccc(Cl)c45)ccc13)C2 [P-0504, 3-((1R,5S)-3-(7-(8-chloro-3-hydroxynaphthalen-1-yl)-8-fluoro-2-(((2R,7aS)-2-fluorotetrahydro-1H-pyrrolizin-7a(5H)-yl)methoxy)quinazolin-4-yl)-3,8-diazabicyclo[3.2.1]octan-8-yl)-3-oxopropanenitrile]",IC50,[1],0.0001 to 10 µM
same,IC50,[2],0.0001 to 10 µM
same,IC50,[3],0.0001 to 10 µM
"O=C(CO)N1[C@@H]2CC[C@H]1CN(c1nc(OCC34CCCN3CCC4)nc3cc(-c4cc(O)cc5ccccc45)ccc13)C2 [P-0008, 2-hydroxy-1-((1R,5S)-3-(7-(3-hydroxynaphthalen-1-yl)-2-((tetrahydro-1H-pyrrolizin-7a(5H)-yl)methoxy)quinazolin-4-yl)-3,8-diazabicyclo[3.2.1]octan-8-yl)ethan-1-one]",IC50,[1],0.0001 to 10 µM
same,IC50,[2],0.0001 to 10 µM
same,IC50,[3],0.0001 to 10 µM
"O=C(c1ccccn1)N1[C@@H]2CC[C@H]1CN(c1nc(OCC34CCCN3CCC4)nc3cc(-c4cc(O)cc5ccccc45)ccc13)C2 [P-0065, ((1R,5S)-3-(7-(3-hydroxynaphthalen-1-yl)-2-((tetrahydro-1H-pyrrolizin-7a(5H)-yl)methoxy)quinazolin-4-yl)-3,8-diazabicyclo[3.2.1]octan-8-yl)(pyridin-2-yl)methanone]",IC50,[1],10 to 100 µM
same,IC50,[2],0.0001 to 10 µM
same,IC50,[3],0.0001 to 10 µM
"O=C(CC1CCNC1)N1[C@@H]2CC[C@H]1CN(c1nc(OCC34CCCN3CCC4)nc3cc(-c4cc(O)cc5ccccc45)ccc13)C2 (stereo partly drawn) [P-0110, 1-((1R,5S)-3-(7-(3-hydroxynaphthalen-1-yl)-2-((tetrahydro-1H-pyrrolizin-7a(5H)-yl)methoxy)quinazolin-4-yl)-3,8-diazabicyclo[3.2.1]octan-8-yl)-2-(pyrrolidin-3-yl)ethan-1-one]",IC50,[1],0.0001 to 10 µM
same,IC50,[2],0.0001 to 10 µM
same,IC50,[3],0.0001 to 10 µM
"O=C1N[C@@H](CC(=O)N2[C@@H]3CC[C@H]2CN(c2nc(OCC45CCCN4CCC5)nc4c(F)c(-c5cc(O)cc6ccccc56)ccc24)C3)CO1 [P-0414, (S)-4-(2-((1R,5S)-3-(8-fluoro-7-(3-hydroxynaphthalen-1-yl)-2-((tetrahydro-1H-pyrrolizin-7a(5H)-yl)methoxy)quinazolin-4-yl)-3,8-diazabicyclo[3.2.1]octan-8-yl)-2-oxoethyl)oxazolidin-2-one]",IC50,[1],0.0001 to 10 µM
same,IC50,[2],0.0001 to 10 µM
same,IC50,[3],0.0001 to 10 µM
"CN1CCC[C@H]1COc1nc(N2C[C@H]3CC[C@@H](C2)N3)c2ccc(-c3cc(O)cc4ccccc34)cc2n1 [P-0037, 4-(4-((1R,5S)-3,8-diazabicyclo[3.2.1]octan-3-yl)-2-(((S)-1-methylpyrrolidin-2-yl)methoxy)quinazolin-7-yl)naphthalen-2-ol]",IC50,[1],0.0001 to 10 µM
same,IC50,[2],0.0001 to 10 µM
same,IC50,[3],0.0001 to 10 µM
"CN1CC[C@@H](NC(=O)N2[C@@H]3CC[C@H]2CN(c2nc(OCC45CCCN4CCC5)nc4c(F)c(-c5cc(O)cc6ccccc56)ccc24)C3)C1 [P-0186, (1R,5S)-3-(8-fluoro-7-(3-hydroxynaphthalen-1-yl)-2-((tetrahydro-1H-pyrrolizin-7a(5H)-yl)methoxy)quinazolin-4-yl)-N-((R)-1-methylpyrrolidin-3-yl)-3,8-diazabicyclo[3.2.1]octane-8-carboxamide]",IC50,[1],0.0001 to 10 µM
same,IC50,[2],0.0001 to 10 µM
same,IC50,[3],0.0001 to 10 µM
"CN1CCC[C@H]1COc1nc(N2C[C@H]3CC[C@@H](C2)N3)c2cc(CO)c(-c3cc(O)cc4ccccc34)c(F)c2n1 [P-0056, 4-[4-(3,8-diazabicyclo[3.2.1]octan-3-yl)-8-fluoro-6-(hydroxymethyl)-2-[[(2S)-1-methylpyrrolidin-2-yl]methoxy]quinazolin-7-yl]naphthalen-2-ol]",IC50,[1],0.0001 to 10 µM
same,IC50,[2],0.0001 to 10 µM
same,IC50,[3],0.0001 to 10 µM
"N#CCC(=O)N1[C@@H]2CC[C@H]1CN(c1nc(OCC34CCCN3CCC4)nc3c(F)c(-c4cc(O)cc5ccccc45)ccc13)C2 [P-0354, 3-((1R,5S)-3-(8-fluoro-7-(3-hydroxynaphthalen-1-yl)-2-((tetrahydro-1H-pyrrolizin-7a(5H)-yl)methoxy)quinazolin-4-yl)-3,8-diazabicyclo[3.2.1]octan-8-yl)-3-oxopropanenitrile]",IC50,[1],0.0001 to 10 µM
same,IC50,[2],0.0001 to 10 µM
same,IC50,[3],0.0001 to 10 µM
"CN1CCC[C@H]1COc1nc(N2C[C@H]3CC[C@@H](C2)N3C(=O)Cc2c[nH]cn2)c2ccc(-c3cc(O)cc4ccccc34)cc2n1 [P-0117, 1-((1R,5S)-3-(7-(3-hydroxynaphthalen-1-yl)-2-(((S)-1-methylpyrrolidin-2-yl)methoxy)quinazolin-4-yl)-3,8-diazabicyclo[3.2.1]octan-8-yl)-2-(1H-imidazol-4-yl)ethan-1-one]",IC50,[1],0.0001 to 10 µM
same,IC50,[2],0.0001 to 10 µM
same,IC50,[3],0.0001 to 10 µM
"O=C(Nc1cn[nH]c1)N1[C@@H]2CC[C@H]1CN(c1nc(OCC34CCCN3CCC4)nc3cc(-c4cc(O)cc5ccccc45)ccc13)C2 [P-0126, (1R,5S)-3-(7-(3-hydroxynaphthalen-1-yl)-2-((tetrahydro-1H-pyrrolizin-7a(5H)-yl)methoxy)quinazolin-4-yl)-N-(1H-pyrazol-4-yl)-3,8-diazabicyclo[3.2.1]octane-8-carboxamide]",IC50,[1],0.0001 to 10 µM
same,IC50,[2],0.0001 to 10 µM
same,IC50,[3],0.0001 to 10 µM
"Oc1cc(-c2c(F)cc3c(N4C[C@H]5CC[C@@H](C4)N5)nc(OCC45CCCN4CCC5)nc3c2F)c2ccccc2c1 [P-0010, 4-(4-((1R,5S)-3,8-diazabicyclo[3.2.1]octan-3-yl)-6,8-difluoro-2-((tetrahydro-1H-pyrrolizin-7a(5H)-yl)methoxy)quinazolin-7-yl)naphthalen-2-ol]",IC50,[1],0.0001 to 10 µM
same,IC50,[2],0.0001 to 10 µM
same,IC50,[3],0.0001 to 10 µM
"CC(CN)Oc1nc(N2C[C@H]3CC[C@@H](C2)N3)c2ccc(-c3cc(O)cc4ccccc34)cc2n1 (stereo partly drawn) [P-0062, 4-(2-((1-aminopropan-2-yl)oxy)-4-((1R,5S)-3,8-diazabicyclo[3.2.1]octan-3-yl)quinazolin-7-yl)naphthalen-2-ol]",IC50,[1],0.0001 to 10 µM
same,IC50,[2],10 to 100 µM
"Clc1cccc2[nH]cc(-c3ccc4c(N5C[C@H]6CC[C@@H](C5)N6)nc(OCC56CCCN5CCC6)nc4c3)c12 [P-0700, 4-((1R,5S)-3,8-diazabicyclo[3.2.1]octan-3-yl)-7-(4-chloro-1H-indol-3-yl)-2-((tetrahydro-1H-pyrrolizin-7a(5H)-yl)methoxy)quinazoline]",IC50,[1],0.0001 to 10 µM
same,IC50,[2],10 to 100 µM
